Here are results for 36 molecules from ChEMBL document CHEMBL2406972, “Synthesis and antitumor activities of novel dibenzo[b,d]furan-imidazole hybrid compounds” (Eur J Med Chem, 2013).

What all share (type): functional, cell-based
One assay relates to A549. The assay can be described thus: Cytotoxicity against human A549 cells after 48 hrs by MTT assay. The conditions noted are these: A549, 48 h. In general terms: Tetrazolium dyes change colour on reduction, which living cells bring about.
For another assay, the system named is SW480. The assay can be described thus: Cytotoxicity against human SW480 cells after 48 hrs by MTT assay. The note with it: SW480, 48 h.
Another assay has as its system MCF7. Put plainly: Cytotoxicity against human MCF7 cells after 48 hrs by MTT assay. The conditions noted are these: MCF7, 48 h.
Another assay concerns SMMC-7721. Put plainly: Cytotoxicity against human SMMC7721 cells after 48 hrs by MTT assay. The conditions noted are these: SMMC-7721, 48 h.
A further assay has as its system HL-60. The assay can be described thus: Cytotoxicity against human HL60 cells after 48 hrs by MTT assay. The note with it: HL-60, 48 h.

For the molecule `Cc1n(C(c2ccccc2)c2ccc3oc4ccccc4c3c2)cc[n+]1CC(=O)c1ccc2ccccc2c1` (stereo not given), the IC50 in the assay on A549 was determined as 3.78 µM; in the assay with SW480, 2.62 µM; in the assay with MCF7 it was 2.31 µM; in the assay on SMMC-7721, 2.57 µM; with HL-60, 0.98 µM.

As to `CC(c1ccc2oc3ccccc3c2c1)n1cc[n+](Cc2ccc([N+](=O)[O-])cc2)c1` (stereo not given), the concentration for half-maximal inhibition (IC50) with A549 was more than 40 µM; in the assay on SW480, more than 40 µM; in the assay with MCF7, 13.8 µM; in the assay with SMMC-7721, 22.5 µM; with HL-60, 11.3 µM.

On to `Cc1nccn1C(C)c1ccc2oc3ccccc3c2c1` (stereo not given), for which the half-inhibitory concentration (IC50) with A549 was 16.2 µM; with SW480, 21.4 µM; in the assay with MCF7, 18.7 µM; in the assay on SMMC-7721, more than 40 µM; with HL-60, 10.9 µM.

Take `O=C(C[n+]1ccn(C(c2ccccc2)c2ccc3oc4ccccc4c3c2)c1)c1ccc(O)cc1` (stereo not given): the IC50 in the assay with A549 is 6.8 µM; with SW480 it was 15.2 µM; in the assay with MCF7, 7.05 µM; in the assay with SMMC-7721 it was 6.28 µM; in the assay on HL-60 it was 2.61 µM.

In the case of `COc1ccc(C(=O)C[n+]2cn(C(c3ccccc3)c3ccc4oc5ccccc5c4c3)c3ccccc32)cc1` (stereo not given), the IC50 came to 3.34 µM in the assay on A549; 5.56 µM in the assay with SW480; 4.78 µM in the assay with MCF7; 2.1 µM in the assay on SMMC-7721; 0.64 µM in the assay with HL-60.

`COc1ccc(C(=O)C[n+]2ccn(C(c3ccccc3)c3ccc4oc5ccccc5c4c3)c2C)cc1` (stereo not given): the 50% inhibitory concentration (IC50) in the assay with A549 is 1.9 µM; in the assay on SW480, 3.73 µM; in the assay on MCF7, 2.42 µM; with SMMC-7721 it was 2.08 µM; with HL-60 it was 0.59 µM.

For `CC(c1ccc2oc3ccccc3c2c1)n1c[n+](CC(=O)c2ccc(F)cc2)c2ccccc21` (stereo not given), the IC50 was determined as 13.7 µM in the assay on A549; 9.77 µM in the assay on SW480; 3.85 µM in the assay with MCF7; 6.31 µM with SMMC-7721; 1.67 µM in the assay with HL-60.

`CC(c1ccc2oc3ccccc3c2c1)n1cnc2ccccc21` (stereo not given): the half-inhibitory concentration (IC50) in the assay with A549, with SW480, with MCF7, in the assay on SMMC-7721 and in the assay on HL-60 was more than 40 µM each time.

In the case of `CC(c1ccc2oc3ccccc3c2c1)n1cc[n+](CC(=O)c2ccccc2)c1` (stereo not given), the IC50 in the assay on A549 worked out at 27 µM; with SW480, 14.4 µM; with MCF7, 14.1 µM; in the assay with SMMC-7721, 12.1 µM; with HL-60, 2.55 µM.

On to `CC(c1ccc2oc3ccccc3c2c1)n1c[n+](CC(=O)c2ccc3ccccc3c2)c2ccccc21` (stereo not given), for which the 50% inhibitory concentration (IC50) was 3.46 µM with A549; 2.95 µM in the assay on SW480; 3.14 µM in the assay with MCF7; 2.24 µM in the assay with SMMC-7721; 1.65 µM in the assay with HL-60.

For `O=C(C[n+]1cn(C(c2ccccc2)c2ccc3oc4ccccc4c3c2)c2ccccc21)c1ccc(O)cc1` (stereo not given), the IC50 with A549 was found to be 17.7 µM; with SW480, 15.6 µM; with MCF7, 9.15 µM; in the assay with SMMC-7721, 10.8 µM; in the assay on HL-60, 2.89 µM.

With `O=C(c1ccccc1)C(c1ccccc1)[n+]1ccn(C(c2ccccc2)c2ccc3oc4ccccc4c3c2)c1` (stereo not given), the half-inhibitory concentration (IC50) with A549 was 3.75 µM; in the assay on SW480, 2.36 µM; with MCF7, 1.46 µM; in the assay with SMMC-7721, 2.38 µM; with HL-60, 0.52 µM.

Turning to `Cc1n(C(C)c2ccc3oc4ccccc4c3c2)cc[n+]1CC(=O)c1ccc(O)cc1` (stereo not given), the half-inhibitory concentration (IC50) in the assay with A549 is 28.6 µM; with SW480, 37.5 µM; in the assay with MCF7 it was 26.4 µM; in the assay with SMMC-7721 it was 13.3 µM; in the assay on HL-60 it was 12.2 µM.

In the case of `CC(c1ccc2oc3ccccc3c2c1)n1c[n+](C(C(=O)c2ccccc2)c2ccccc2)c2ccccc21` (stereo not given), the half-maximal inhibitory concentration (IC50) in the assay on A549 worked out at 12.7 µM; in the assay with SW480, 10.5 µM; with MCF7, 9.35 µM; in the assay with SMMC-7721, 5.4 µM; with HL-60, 2.79 µM.

Consider `COc1ccc(C(=O)C[n+]2cn(C(C)c3ccc4oc5ccccc5c4c3)c3ccccc32)cc1` (stereo not given), for which the IC50 in the assay with A549 was 5.95 µM; in the assay on SW480, 3.18 µM; in the assay on MCF7 it was 3.42 µM; with SMMC-7721, 2.95 µM; in the assay with HL-60 it was 2.05 µM.

In the case of `COc1ccc(C(=O)C[n+]2ccn(C(C)c3ccc4oc5ccccc5c4c3)c2C)cc1` (stereo not given), the IC50 in the assay with A549 came to 3.02 µM; in the assay on SW480, 5.78 µM; in the assay with MCF7, 1.29 µM; in the assay with SMMC-7721 it was 1.43 µM; in the assay on HL-60, 0.7 µM.

Turning to `Cc1n(C(C)c2ccc3oc4ccccc4c3c2)cc[n+]1CC(=O)c1ccccc1` (stereo not given), the IC50 was determined as 17.9 µM in the assay on A549; 10.1 µM in the assay with SW480; 4.49 µM with MCF7; 3.02 µM in the assay on SMMC-7721; 2.85 µM with HL-60.

Regarding `CC(c1ccc2oc3ccccc3c2c1)n1c[n+](CC(=O)c2ccc(Br)cc2)c2ccccc21` (stereo not given), the IC50 in the assay on A549 came to 3.54 µM; in the assay with SW480, 3.18 µM; in the assay with MCF7, 3.08 µM; in the assay with SMMC-7721, 2.62 µM; in the assay with HL-60 it was 0.66 µM.

For `CC(c1ccc2oc3ccccc3c2c1)n1cc[n+](CC(=O)c2ccc3ccccc3c2)c1` (stereo not given), the IC50 with A549 came to 8.46 µM; in the assay on SW480 it was 3.69 µM; in the assay on MCF7, 3.5 µM; with SMMC-7721, 6.43 µM; with HL-60, 2.46 µM.

On to `c1ccc(C(c2ccc3oc4ccccc4c3c2)n2ccnc2)cc1` (stereo not given), for which the IC50 in the assay with A549 was 24.6 µM; with SW480, more than 40 µM; in the assay with MCF7, more than 40 µM; in the assay on SMMC-7721 it was 33.7 µM; in the assay with HL-60 it was 21 µM.

`CC(c1ccc2oc3ccccc3c2c1)n1cc[n+](CC(=O)c2ccc(O)cc2)c1` (stereo not given): the half-maximal inhibitory concentration (IC50) with A549, in the assay with SW480, with MCF7, with SMMC-7721 and in the assay on HL-60 was more than 40 µM in each case.

Consider `Cc1n(C(c2ccccc2)c2ccc3oc4ccccc4c3c2)cc[n+]1Cc1ccc([N+](=O)[O-])cc1` (stereo not given), for which the concentration for half-maximal inhibition (IC50) in the assay on A549 is more than 40 µM; in the assay with SW480, 18.2 µM; in the assay with MCF7, 15.3 µM; in the assay on SMMC-7721, 18.5 µM; in the assay with HL-60, 8.74 µM.

As for `Cc1n(C(C)c2ccc3oc4ccccc4c3c2)cc[n+]1CC(=O)c1ccc(F)cc1` (stereo not given), the half-inhibitory concentration (IC50) came out at 15.4 µM with A549; 12.3 µM in the assay with SW480; 16.2 µM in the assay on MCF7; 4.7 µM with SMMC-7721; 2.96 µM in the assay on HL-60.

As for `CC(c1ccc2oc3ccccc3c2c1)n1cc[n+](CC(=O)c2ccc(F)cc2)c1` (stereo not given), the IC50 in the assay with A549 worked out at 22.6 µM; in the assay with SW480 it was 16.4 µM; with MCF7, 16.7 µM; in the assay on SMMC-7721, 17.5 µM; in the assay with HL-60 it was 2.64 µM.

As for `COc1ccc(C(=O)C[n+]2ccn(C(c3ccccc3)c3ccc4oc5ccccc5c4c3)c2)cc1` (stereo not given), the IC50 in the assay with A549 worked out at 7.27 µM; in the assay on SW480 it was 3.76 µM; with MCF7, 4.12 µM; in the assay on SMMC-7721, 5.59 µM; in the assay with HL-60 it was 2.09 µM.

Turning to `O=C(C[n+]1ccn(C(c2ccccc2)c2ccc3oc4ccccc4c3c2)c1)c1ccc2ccccc2c1` (stereo not given), the half-maximal inhibitory concentration (IC50) in the assay with A549 was determined as 5.86 µM; in the assay with SW480, 2.57 µM; in the assay with MCF7, 2.78 µM; in the assay with SMMC-7721 it was 3.61 µM; in the assay with HL-60 it was 1.91 µM.

Regarding `CC(c1ccc2oc3ccccc3c2c1)n1ccnc1` (stereo not given), the IC50 in the assay with A549, with SW480, in the assay with MCF7, in the assay on SMMC-7721 and with HL-60 was more than 40 µM each time.

Turning to `CC(c1ccc2oc3ccccc3c2c1)n1c[n+](Cc2ccc([N+](=O)[O-])cc2)c2ccccc21` (stereo not given), the concentration for half-maximal inhibition (IC50) was determined as 32.3 µM with A549; 13.4 µM in the assay on SW480; 13.8 µM in the assay with MCF7; 18.4 µM in the assay with SMMC-7721; 5.93 µM with HL-60.

On to `CCCC[n+]1cn(C(c2ccccc2)c2ccc3oc4ccccc4c3c2)c2ccccc21` (stereo not given), for which the half-inhibitory concentration (IC50) stood at 4.61 µM in the assay with A549; 8 µM in the assay on SW480; 3.37 µM in the assay with MCF7; 2.93 µM in the assay with SMMC-7721; 1.12 µM in the assay on HL-60.

As to `Cc1n(C(C)c2ccc3oc4ccccc4c3c2)cc[n+]1Cc1ccc([N+](=O)[O-])cc1` (stereo not given), the concentration for half-maximal inhibition (IC50) was more than 40 µM with A549; more than 40 µM in the assay on SW480; more than 40 µM with MCF7; more than 40 µM with SMMC-7721; 14.6 µM in the assay with HL-60.

For the molecule `O=C(C[n+]1cn(C(c2ccccc2)c2ccc3oc4ccccc4c3c2)c2ccccc21)c1ccc(Br)cc1` (stereo not given), the IC50 in the assay with A549 was found to be 3.8 µM; in the assay on SW480 it was 3.83 µM; in the assay on MCF7, 2.91 µM; in the assay with SMMC-7721 it was 3.36 µM; in the assay on HL-60 it was 2.1 µM.

Turning to `O=C(C[n+]1ccn(C(c2ccccc2)c2ccc3oc4ccccc4c3c2)c1)c1ccc(Br)cc1` (stereo not given), the 50% inhibitory concentration (IC50) in the assay on A549 was determined as 7.7 µM; with SW480 it was 2.11 µM; in the assay on MCF7, 3.32 µM; in the assay on SMMC-7721 it was 10.8 µM; in the assay on HL-60, 2.13 µM.

Regarding `c1ccc(C(c2ccc3oc4ccccc4c3c2)n2cnc3ccccc32)cc1` (stereo not given), the IC50 in the assay on A549 is 23.4 µM; in the assay on SW480 it was more than 40 µM; in the assay with MCF7, 20.9 µM; with SMMC-7721, 25.4 µM; in the assay with HL-60, 17.2 µM.

As for `COc1ccc(C(=O)C[n+]2ccn(C(C)c3ccc4oc5ccccc5c4c3)c2)cc1` (stereo not given), the IC50 came to 12.2 µM in the assay with A549; 12.7 µM in the assay on SW480; 9.02 µM in the assay with MCF7; 9.98 µM with SMMC-7721; 3.45 µM with HL-60.

Turning to `O=C(C[n+]1cn(C(c2ccccc2)c2ccc3oc4ccccc4c3c2)c2ccccc21)c1ccccc1` (stereo not given), the IC50 was determined as 13.6 µM in the assay on A549; 3.54 µM in the assay with SW480; 2.5 µM with MCF7; 4.61 µM in the assay with SMMC-7721; 2.3 µM in the assay on HL-60.

In the case of `CCCC[n+]1ccn(C(c2ccccc2)c2ccc3oc4ccccc4c3c2)c1` (stereo not given), the IC50 stood at 11.4 µM in the assay on A549; 13.1 µM with SW480; 6.03 µM in the assay with MCF7; 8.13 µM in the assay with SMMC-7721; 1.1 µM in the assay with HL-60.

By IC50 is commonly meant the midpoint of a concentration-inhibition curve.
